Measured values as given in patent US20150315241A1, “Antibiotic Peptides” (priority 2007, published 2015).
Converted amounts (≈) assume the structure as drawn. Like-named read-outs stand apart in the source and are kept apart here. Where a SMILES comes first, the peptide text is derived from it. Where no end group is shown, it is not given here. [ ]: non-standard residue; d: D form. Hyp = O=C(O)[C@@H]1C[C@@H](O)CN1; Orn = NCCC[C@H](N)C(=O)O

Assays:
in vitro = in vitro ADME, mouse; conditions: 25% aqueous mouse serum, 37° C.; read-out: Half-life time
In short: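 Peptide or peptidomimetic (0.5 mg/mL aqueous stock) incubated in 25% pooled mouse serum at 37 °C, sampled at 0–6 h, in duplicate. Proteins precipitated with 15% TCA; supernatants neutralized and analyzed by RP-HPLC with 0.1% TFA. Degradation products identified by MALDI-TOF/TOF-MS.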

S. typhi S5 = assay type: cell-based, Salmonella typhi; conditions: S5, 20 h
In short: (§1)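 Two-fold serial broth microdilution in 1% TSB, final peptide 125 μg/mL down to 60 ng/mL. Inoculum from overnight nutrient-broth cultures adjusted to 5×10^6 CFU/mL. After 20 hrs at 37° C., growth was read as absorbance at 595 nm; triplicates, sterile water as negative control.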

E. coli 45849 = assay: Growth inhibition assay (MIC); assay type: cell-based, Escherichia coli
In short: as §1

K. pneumonia 681 = assay type: cell-based, Klebsiella pneumoniae
In short: (§2)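 Two-fold serial dilution in 1% TSB, final 125 μg/mL to 60 ng/mL; inoculum 5×10^6 CFU/mL (before 1:1 mixing with peptide). Incubated 20 hrs at 37° C., growth read as absorbance at 595 nm, in triplicate with sterile water as negative control.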

E. coli DC 2 = assay: Growth inhibition assay (MIC); assay type: cell-based, Escherichia coli; conditions: 1% TSB, 37° C., 20 hrs
In short: as §2

E. coli BL 21 AI = assay: Growth inhibition assay (MIC); assay type: cell-based, Escherichia coli; conditions: 1% TSB, 37° C., 20 hrs
In short: as §2

M. luteus ATCC 10240 = assay type: cell-based, Micrococcus luteus
In short: as §2

[1] = system: S. enterica subsp. Enterica serovar. typhi G10215 ATCC 700408; assay type: cell-based, Salmonella enterica; conditions: ATCC 700408, 20 h
In short: as §1

[2] = system: R. radiobatter ATCC 15955; assay: Growth inhibition assay (MIC); assay type: cell-based, Rhizobium radiobacter
In short: as §1

E. coli D31 = assay type: cell-based, Escherichia coli; conditions: D31, 20 h
In short: as §1

K. Pneumonia 123132 = assay: Growth inhibition assay (MIC); assay type: cell-based, Klebsiella pneumoniae
In short: as §1

[3] = system: K. Pneumonia K6, ATCC 700603; assay: Growth inhibition assay (MIC); assay type: cell-based, Klebsiella pneumoniae; conditions: multidrug resistant strain; 1% TSB, 37° C., 20 hrs
In short: as §1

Mycobacterium vaccae = assay type: cell-based
Experimental: The minimal inhibition concentrations (MIC) of the apidaecin-derived peptides and peptide-derivatives were determined by a growth inhibition assay using a serial peptide dilution in sterilized round-bottom 96-well plates (polystyrene, U-bottom, Greiner Bio-One GmbH) with a final volume of 100 μL per well. The bacteria, e.g., E. coli BL21 A1, were grown in nutrient broth (NB, Carl Roth GmbH+Co. KG, Karlsruhe, Germany) at 37° C. over night. To each well of the 96-well plate, 50 μL of the overnight culture adjusted to 5×10^6 CFU/mL in 1% TSB were added. Lyophilized peptides and peptidomimetics were dissolved in 1% TSB (tryptic soy broth) or water to give a final concentration of 250 μg/mL. Fifty μL of the peptide or peptidomimetics solution were added to the first well of a row on the plate and mixed. Fifty μL of the first well containing the peptide solution were transferred to the second well, mixed and again 50 μL transferred to the next well and so on. Thereby, a two-fold dilution series was obtained starting at 250 μg/mL in the first well down to 120 ng/mL in the 12th well of a row giving a final peptide or peptidomimetics concentration from 125 μg/mL (well 1) to 60 ng/mL (well 12). Plates were incubated at 37° C. for 20 hrs. The absorbance was measured at 595 nm using a TECAN micro plate spectrophotometer (Tecan, Germany). All peptides and peptidomimetics were measured in triplicates. Sterilized water was used as a negative control.
The bacteria strains were tested: • Eschericha coli 1103, 10233, BL 21 AI, DC 2, • Klebsiella pneumoniae 681, • Micrococcus luteus ATCC 10240, • Mycobacterium vaccae • Bactillus subtillis 347.

B. subtilis 347 = assay type: cell-based, Bactillus subtillis
In short: as §2

E. coli 10233 = assay type: cell-based, Escherichia coli
In short: as §2

E. coli 1103 = assay type: cell-based, Escherichia coli
In short: as §2

[4] = multidrug resistant strain, 1% TSB, 37° C., 20 hrs

Molecule | half-life at 0.061 mg/mL (in vitro) | MIC S. typhi S5 (S. typhi S5) | MIC E. coli 45849 (E. coli 45849; [4]) | MIC K. pneumonia 681 (K. pneumonia 681; 20 h) | MIC E. coli DC 2 (E. coli DC 2) | MIC E. coli BL 21 AI (E. coli BL 21 AI) | MIC M. luteus ATCC 10240 (M. luteus ATCC 10240; ATCC 10240, 20 h) | MIC S. enterica subsp. Enterica serovar. typhi G10215 ATCC 700408 [1] | MIC R. radiobatter ATCC 15955 [2, 4] | MIC E. coli D31 (E. coli D31) | MIC K. Pneumonia 123132 (K. Pneumonia 123132; [4]) | MIC K. Pneumonia K6, ATCC 700603 [3] | MIC Mycobacterium vaccae (Mycobacterium vaccae; 20 h) | MIC B. subtilis 347 (B. subtilis 347; 347, 20 h) | MIC E. coli 10233 (E. coli 10233; 10233, 20 h) | MIC E. coli 1103 (E. coli 1103; 1103, 20 h) | also measured
CC[C@H](C)[C@H](NC(=O)[C@H](Cc1ccc(O)cc1)NC(=O)[C@@H](NC(=O)[C@@H]1CCCN1C(=O)[C@H](CCCNC(=N)N)NC(=O)[C@H](CC(N)=O)NC(=O)[C@H](CC(N)=O)NC(=O)[C@@H](N)CCCN)C(C)C)C(=O)N1CCC[C@H]1C(=O)N[C@@H](CCC(N)=O)C(=O)N1CCC[C@H]1C(=O)N[C@@H](CCCNC(=N)N)C(=O)N1CCC[C@H]1C(=O)N1CCC[C@H]1C(=O)N[C@@H](Cc1c[nH]cn1)C(=O)N1CCC[C@H]1C(=O)N[C@@H](CCCNC(=N)N)C(=O)N[C@@H](CC(C)C)C(N)=O [compound 8] (H-[Orn]NNRPVYIPQPRPPHPRL-NH2) | 30 min | <0.5 µg/mL | <0.25 µg/mL | 1.95 µg/mL (≈ 0.901 µM) | 0.98 µg/mL (≈ 0.453 µM) | 0.24 µg/mL (≈ 0.111 µM) | 7.84 µg/mL (≈ 3.62 µM) | <0.25 µg/mL | <0.16 µg/mL | 2 µg/mL (≈ 0.924 µM) | 1 µg/mL (≈ 0.462 µM) | 16 µg/mL (≈ 7.39 µM) | 125 µg/mL (≈ 57.7 µM) | >125 µg/mL | – | – | –
CC[C@H](C)[C@H](NC(=O)[C@H](Cc1ccc(O)cc1)NC(=O)[C@@H](NC(=O)[C@@H]1CCCN1C(=O)[C@H](CCCNC(=N)N)NC(=O)[C@H](CC(N)=O)NC(=O)[C@H](CC(N)=O)NC(=O)[C@H](CCCN)NC(C)=O)C(C)C)C(=O)N1CCC[C@H]1C(=O)N[C@@H](CCCNC(=N)N)C(=O)N1CCC[C@H]1C(=O)N[C@@H](CCCNC(=N)N)C(=O)N1CCC[C@H]1C(=O)N1CCC[C@H]1C(=O)N[C@@H](Cc1c[nH]cn1)C(=O)N1CCC[C@H]1C(=O)N[C@@H](CCCNC(=N)N)C(=O)N[C@@H](CC(C)C)C(N)=O [compound 39] (Ac-[Orn]NNRPVYIPRPRPPHPRL-NH2) | – | <0.5 µg/mL | 1 µg/mL (≈ 0.447 µM) | 3.9 µg/mL (≈ 1.75 µM) | 0.98 µg/mL (≈ 0.439 µM) | 1.95 µg/mL (≈ 0.873 µM) | 0.98 µg/mL (≈ 0.439 µM) | 4 µg/mL (≈ 1.79 µM) | 0.33 µg/mL (≈ 0.148 µM) | 4 µg/mL (≈ 1.79 µM) | 4 µg/mL (≈ 1.79 µM) | 16 µg/mL (≈ 7.16 µM) | 125 µg/mL (≈ 55.9 µM) | 125 µg/mL (≈ 55.9 µM) | 1.95 µg/mL (≈ 0.873 µM) | 3.91 µg/mL (≈ 1.75 µM) | –
CC[C@H](C)[C@H](NC(=O)[C@H](Cc1ccc(O)cc1)NC(=O)[C@@H](NC(=O)[C@@H]1CCCN1C(=O)[C@H](CCCNC(=N)N)NC(=O)[C@H](CC(N)=O)NC(=O)[C@H](CC(N)=O)NC(=O)[C@H](CCCN)NC(C)=O)C(C)C)C(=O)N1CCC[C@H]1C(=O)N[C@@H](CCC(N)=O)C(=O)N1CCC[C@H]1C(=O)N[C@@H](CCCNC(=N)N)C(=O)N1CCC[C@H]1C(=O)N1CCC[C@H]1C(=O)N[C@@H](Cc1c[nH]cn1)C(=O)N1CCC[C@H]1C(=O)N[C@@H](CCCNC(=N)N)C(=O)N[C@@H](CC(C)C)C(N)=O [compound 7] (Ac-[Orn]NNRPVYIPQPRPPHPRL-NH2) | 15 min | 2 µg/mL (≈ 0.906 µM) | 1 µg/mL (≈ 0.453 µM) | 1.95 µg/mL (≈ 0.884 µM) | 3.9 µg/mL (≈ 1.77 µM) | 0.49 µg/mL (≈ 0.222 µM) | 3.91 µg/mL (≈ 1.77 µM) | 0.5 to 1 µg/mL | <0.16 µg/mL | 4 to 8 µg/mL | 16 µg/mL (≈ 7.25 µM) | 64 µg/mL (≈ 29 µM) | 125 µg/mL (≈ 56.6 µM) | >125 µg/mL | – | 1.95 µg/mL (≈ 0.884 µM) | –
CC[C@H](C)[C@H](NC(=O)[C@H](Cc1ccc(O)cc1)NC(=O)[C@@H](NC(=O)[C@@H]1CCCN1C(=O)[C@H](CCCNC(=N)N)NC(=O)[C@H](CC(N)=O)NC(=O)[C@H](CC(N)=O)NC(=O)CN)C(C)C)C(=O)N1CCC[C@H]1C(=O)N[C@@H](CCCN)C(=O)N1C[C@H](O)C[C@H]1C(=O)N[C@@H](CCCNC(=N)N)C(=O)N1CCC[C@H]1C(=O)N1CCC[C@H]1C(=O)N[C@@H](Cc1c[nH]cn1)C(=O)N1CCC[C@H]1C(=O)N[C@@H](CCCNC(=N)N)C(=O)N[C@@H](CC(C)C)C(N)=O [compound 11] (H-GNNRPVYIP[Orn][Hyp]RPPHPRL-NH2) | – | <0.5 µg/mL | – | – | 0.98 µg/mL (≈ 0.465 µM) | 0.49 µg/mL (≈ 0.232 µM) | – | <0.25 µg/mL | – | 8 µg/mL (≈ 3.79 µM) | – | 8 µg/mL (≈ 3.79 µM) | – | – | – | – | MIC E. coli 45849 (E. coli 45849; 45849, 20 h): 1 µg/mL (≈ 0.474 µM); MIC K. pneumonia 681 (K. pneumonia 681; 1% TSB, 37° C., 20 hrs): 1.95 µg/mL (≈ 0.924 µM); MIC M. luteus ATCC 10240 (M. luteus ATCC 10240; 1% TSB, 37° C., 20 hrs): 1.95 µg/mL (≈ 0.924 µM); MIC R. radiobatter ATCC 15955 ([2]; ATCC 15955, 20 h): <0.16 µg/mL; MIC K. Pneumonia 123132 (K. Pneumonia 123132; 20 h): 8 µg/mL (≈ 3.79 µM); MIC Mycobacterium vaccae (Mycobacterium vaccae; 1% TSB, 37° C., 20 hrs): 125 µg/mL (≈ 59.3 µM); MIC B. subtilis 347 (B. subtilis 347; 1% TSB, 37° C., 20 hrs): 125 µg/mL (≈ 59.3 µM); MIC E. coli 10233 (E. coli 10233; 1% TSB, 37° C., 20 hrs): 3.91 µg/mL (≈ 1.85 µM); MIC E. coli 1103 (E. coli 1103; 1% TSB, 37° C., 20 hrs): 3.9 µg/mL (≈ 1.85 µM)
GNNRPVYIPQPRPPHPRI [compound 1] | – | – | – | 15.62 µg/mL | 3.91 µg/mL | 0.98 µg/mL | 31.25 µg/mL | 2 µg/mL | – | 64 µg/mL | – | 64 µg/mL | >125 µg/mL | >125 µg/mL | 1.95 µg/mL | 1.95 µg/mL | –
